{
  "source": "paper PMC9972852",
  "about": "“Multivalent effect of peptide functionalized polymeric nanoparticles towards selective prostate cancer targeting” (Nanoscale Advances, 2023)",
  "origin": "cited, not measured here",
  "test_system": "extracellular domain of PSMA",
  "conditions": "monomeric peptide WQPDTAHHWATL",
  "source_text": "Prostate specific membrane antigen (PSMA) is a 100 kDa type II transmembrane glycosylated protein with folate hydrolase activity and is overexpressed not only in nearly all prostate cancer cells,[6] but also in tumor neovasculature in a variety of cancers.[6–8] In contrast, it has minimal expression (100–1000 times lower) in normal prostate epithelium tissues and other normal tissues,[7,9] making it an ideal biomarker for the design of various targeted therapies. Several different kinds of targeting ligands against PSMA have been discovered over the years;[10–12] however, they have not yet had ...",
  "data": [
    {"sequence": "WQPDTAHHWATLC [WQP peptide, PSMA-targeting cell targeting peptide …, synthesized with an added C-terminal cysteine]", "values": [
      {"measurement": "Binding affinity to the extracellular domain of PSMA", "result": "moderate/low"}
    ]}
  ]
}
